Measured values taken from ChEMBL document CHEMBL3272062, “Difference in antimalarial activity between certain amino alcohol diastereomers” (J Med Chem, 1976).
Calls of active or inactive are those of the source. The rule behind the calls is not given here.

How the values were obtained:
Plasmodium berghei [1] = test: Antimalarial activity against Plasmodium berghei infected in sc dosed mouse assessed as increase in mean survival time; type: functional, organism-based
Mus musculus = test: Toxicity in sc dosed mouse measured 2 to 5 days post-infection; type: organism-based; settings: in vivo
Plasmodium berghei [2] = test: Antimalarial activity against Plasmodium berghei infected in mouse assessed as increase in mean survival time at 160 mg/kg, sc; type: functional; settings: route subcutaneous
Plasmodium berghei [3] = test: Antimalarial activity against Plasmodium berghei infected in mouse assessed as increase in mean survival time at 320 mg/kg, sc; type: functional; settings: route subcutaneous
Plasmodium berghei [4] = test: Antimalarial activity against Plasmodium berghei infected in mouse assessed as increase in mean survival time at 80 mg/kg, sc; type: functional; settings: route subcutaneous
Plasmodium berghei [5] = test: Antimalarial activity against Plasmodium berghei infected in mouse assessed as increase in mean survival time at 40 mg/kg, sc; type: functional; settings: route subcutaneous
Plasmodium berghei [6] = test: Antimalarial activity against Plasmodium berghei infected in mouse assessed as cure rate at 640 mg/kg, sc measured on day 60 post-infection; type: functional, organism-based; set-up: dose 640 mg/kg

## CN1CCCCC1C(O)c1cc2ccccc2c2cc(Br)ccc12.Cl (stereo not drawn)
Plasmodium berghei [1]
  Activity: Active
Mus musculus
  Activity: Toxic

## O=C(O)/C=C/C(=O)O.OC(c1cc(C(F)(F)F)nc2c(C(F)(F)F)cccc12)C1CCCNC1 (single isomer, unassigned; diastereomer 1)
Plasmodium berghei [2]
  MST: 11.2 days
Plasmodium berghei [3]
  MST: 15.2 days
Plasmodium berghei [4]
  MST: 10.1 days
Plasmodium berghei [5]
  MST: 5.9 days

## OC(c1cc(C(F)(F)F)nc2c(C(F)(F)F)cccc12)C1CCCNC1 (single isomer, unassigned; diastereomer 1)
Plasmodium berghei [6]
  Activity: Active

## OC(c1cc(C(F)(F)F)nc2c(C(F)(F)F)cccc12)C1CCCNC1 (single isomer, unassigned; diastereomer 2)
Plasmodium berghei [6]
  Activity: inactive
